Data published in US10294248B2, “Beta-lactamase inhibitors” (VenatoRx Pharmaceuticals, Inc., priority 2013, dated 2019).

Tests used:
[1] = test system: K. pneumoniae 156319 expressing KPC-3; experiment: Broth microdilution MIC, K. pneumoniae 156319 KPC-3; assay type: cell-based; details: fixed 4 μg/mL meropenem; CAMHB, 16-20 hours at 37° C.
Text: (§1) To determine the ability of test compounds to potentiate the inhibition of the growth of bacterial strains that produce beta-lactamase enzymes, classic cell based broth microdilution MIC assays were employed. Six bacteria strains producing beta-lactamase enzymes were used: E. coli expressing the Class A Extended Spectrum Beta-Lactamase (ESBL) CTX-M-15, E. cloacae expressing the Class C P99, K. pneumoniae expressing the Class A carbapenemase KPC-3, P. aeruginosa expressing the Class B carbapenemase VIM-2, K. pneumoniae expressing the class A carbapenemase KPC-2 and the class B carbapenemase VIM-4, and S. aureus producing the Class A penicillinase PC-1. The assay was conducted in Cation Adjusted Mueller Hinton Broth (CAMHB, BD #212322, BD Diagnostic Systems, Sparks, Md.). Bacteria strains were grown for 3-5 hours in CAMBH broth. Test compounds (Examples 1-30) were added to a microtiter plate in 2-fold serial dilutions in CAMHB in a final concentration range of 32 μg/mL to 0.25 μg/ml. An overlay of CAMHB containing a Beta-lactam was added to the compounds at a final static concentration of 4 μg/ml. […] In addition to the titration of test compounds the MICs of a panel of control beta-lactams is also tested to ensure the strains are behaving consistently from test to test. Once the test compound and antibiotics are added the plates can be inoculated according to CLSI broth microdilution method. After inoculation the plates are incubated for 16-20 hours at 37° C. then the Minimal Inhibitory Concentration (MIC) of the test compound is determined visually.
(§2) Using the methodology described above, examples of the current invention were evaluated for their ability to inhibit the growth of β-lactamase-producing bacteria in the presence of a β-lactam antibiotic.
(§3) Using the methodology described above in EXAMPLE III, exemplary compounds for Formula I or Formula Ia were evaluated for their ability to inhibit the growth of β-lactamase producing bacteria in the presence of a β-lactam antibiotic.

[2] = test system: E. cloacae 144200 expressing Class C P99 AmpC; experiment: Broth microdilution MIC, E. cloacae 144200 p99 AmpC; assay type: cell-based; details: fixed 4 μg/mL ceftazidime; CAMHB, 16-20 hours at 37° C.
Text: as §1, §2, §3

[3] = biological target: T1, SHV-5 β-lactamase (Class A ESBL) (Klebsiella pneumoniae, UniProt P0A3M1); experiment: β-Lactamase inhibition, SHV-5; assay type: biochemical
T1 construct: made in house; host or cells: E. coli BL21(DE3)
T1 sequence (P0A3M1 22-286): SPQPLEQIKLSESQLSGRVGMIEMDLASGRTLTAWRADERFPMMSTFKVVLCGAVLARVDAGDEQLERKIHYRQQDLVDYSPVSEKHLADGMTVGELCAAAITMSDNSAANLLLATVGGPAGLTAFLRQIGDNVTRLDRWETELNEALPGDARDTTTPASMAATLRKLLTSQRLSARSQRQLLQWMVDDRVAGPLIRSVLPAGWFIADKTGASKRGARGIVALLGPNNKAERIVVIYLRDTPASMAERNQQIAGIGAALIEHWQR
Experimental: (§4) For SHV-5, Kpc-2, p99AmpC and OXA-1 β-lactamases, E. coli BL21(DE3) bacterial cells carrying expression plasmids (expressed as native untagged proteins) for the individual β-lactamases were grown in 1 L of Superbroth (Teknova Inc. Hollister, Calif.) supplemented with 100 μg/ml kanamycin selection and 1×5052 (0.5% glycerol, 0.05% glucose and 0.2% α-lactose) at 35° C. for 18-20 hours. Cells were harvested by centrifugation (4,000×g, 4° C., 20 min), resuspended in 50 ml of 10 mM HEPES pH 7.5 ( 1/20 of the initial volume). The cells were lysed by sonication (5 pulses of 45 seconds) at 45 W on ice. The lysates were clarified by centrifugation at 10,000×g for 40 minutes at 4° C. Samples were diluted 5-fold in 50 mM sodium acetate pH 5.0, stored overnight at 4° C., after which they were centrifuged at 10,000×g for 30 minutes to clarify, and filtered through 0.45 μm filters. The samples were loaded onto a 5 ml Capto S sepharose cation exchange column (GE Healthcare) pre-equilibrated with 50 mM sodium acetate pH 5.0. The column was washed with 5 column volumes of 50 mM sodium acetate pH 5.0 to wash out unbound protein and a linear gradient of NaCl (0 to 500 mM) was used to elute the protein (over 16 CV) from the column. Fractions were assayed for β-lactamase activity using Centa (Calbiochem, Gibbstown, N.J.) or Nitrocefin (EMD Millipore chemicals, Darmstadt, Germany) as a reporter β-lactamase substrate for activity in the isolated fractions. Active fractions were pooled, concentrated and further purified by gel filtration chromatography on a Superdex 75 prep grade gel filtration column (GE Healthcare, Piscataway, N.J.) pre-equilibrated in 50 mM Hepes pH 7.5, 150 mM NaCl. Active fractions were pooled concentrated, quantitated by BCA protein determination (Thermo Scientific, Rockford, Ill.), dialyzed into PBS and frozen at −80° C. in 20% glycerol until use.
(§5) An equal volume of diluted enzyme stock was added, and the plates were incubated at 37° C. for 15 min. Nitrocefin was used as substrate for p99 AmpC, VIM-2 and OXA-1 and dispensed into each well at a final concentration of 100 μM. Absorbance at 486 nm was immediately monitored for 10 min using a Biotek Powerwave XS2 microplate spectrophotometer using the GEN5 software package (Biotek Instruments, Winooski Vt.). In an analogous fashion, imipenem was used as substrate for Kpc-2 and Cefotaxime was used for SHV-5, while changes in absorbance upon hydrolysis of the β-lactam ring were monitored at 300 nm and 260 nm respectively in UV-transparent 96-well microtiter assay plates. Maximum rates of hydrolysis were compared to those in control wells (without inhibitors), and percentages of enzyme inhibition were calculated for each concentration of inhibitor. The concentration of inhibitor needed to reduce the initial rate of hydrolysis of substrate by 50% (IC50) was calculated as the residual activity of β-lactamase at 486 nm using GraFit version 7 kinetics software package (Erithacus Software, Surrey, UK).
(§6) Using the methodology described above, examples of the current invention were evaluated for their ability to inhibit β-lactamase enzymes from all four Ambler classifications (A through D). […] NT=Not tested.

[4] = test system: K. pneumoniae A-1797 expressing KPC-2 and VIM-4; experiment: Broth microdilution MIC, K. pneumoniae A-1797 KPC-2/VIM-4; assay type: cell-based; details: fixed 4 μg/mL meropenem; CAMHB, 16-20 hours at 37° C.
Text: as §1, §2, §3

[5] = biological target: T2, VIM-2 metallo-β-lactamase (Class B) (Pseudomonas aeruginosa, UniProt Q9K2N0); experiment: β-Lactamase inhibition, VIM-2; assay type: biochemical; details: nitrocefin 100 μM, 486 nm; 15 min preincubation at 37° C., PBS pH 7.4
T2 construct: made in house; host or cells: E. coli BL21(DE3)
Experimental: For Vim-2 metallo β-lactamase, the procedure was identical with the following exceptions, first the protein was not pH adjusted to pH 5 with 50 mM sodium acetate, second, the chromatography step was changed to a 5 ml Q sepharose anion exchange column pre-equilibrated with 50 mM Hepes pH 7.5, and elution of the protein was achieved by a linear gradient of NaCl (0-600 mM). Finally, the VIM-2 purification required a second run (3rd step) on the Q sepharose anion exchange column to achieve acceptable purity (>90%).
as §5, §6

[6] = test system: P. aeruginosa Ps296 expressing VIM-2; experiment: Broth microdilution MIC, P. aeruginosa Ps296 VIM-2; assay type: cell-based; details: fixed 4 μg/mL meropenem; CAMHB, 16-20 hours at 37° C.
Text: as §1, §2, §3

[7] = test system: S. aureus MSSA-7 producing penicillinase PC-1; experiment: Broth microdilution MIC, S. aureus MSSA-7 PC-1; assay type: cell-based; details: fixed 4 μg/mL piperacillin; CAMHB, 16-20 hours at 37° C.
Text: as §1, §2, §3

[8] = biological target: T3, KPC-2 β-lactamase (Class A carbapenemase) (Klebsiella pneumoniae, UniProt Q9F663); experiment: β-Lactamase inhibition, KPC-2; assay type: biochemical; details: imipenem substrate, 300 nm; 15 min preincubation at 37° C., PBS pH 7.4
T3 construct: made in house; host or cells: E. coli BL21(DE3)
T3 sequence (Q9F663 25-293, looked up): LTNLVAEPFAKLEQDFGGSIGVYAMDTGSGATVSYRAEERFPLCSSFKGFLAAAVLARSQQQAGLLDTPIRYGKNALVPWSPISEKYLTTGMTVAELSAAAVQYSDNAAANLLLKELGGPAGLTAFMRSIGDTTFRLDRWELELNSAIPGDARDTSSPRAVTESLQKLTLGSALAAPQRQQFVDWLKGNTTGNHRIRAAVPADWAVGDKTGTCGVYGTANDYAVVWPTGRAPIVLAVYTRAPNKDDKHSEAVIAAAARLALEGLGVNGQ
Experimental: as §4, §5, §6

[9] = test system: E. coli ESBL4 expressing CTX-M-15; experiment: Broth microdilution MIC, E. coli ESBL4 CTX-M-15; assay type: cell-based; details: fixed 4 μg/mL ceftazidime; CAMHB, 16-20 hours at 37° C.
Text: as §1, §2, §3

[10] = biological target: T4, p99 AmpC β-lactamase (Class C) (Enterobacter cloacae, UniProt P05364); experiment: β-Lactamase inhibition, p99 AmpC; assay type: biochemical
T4 construct: made in house; host or cells: E. coli BL21(DE3)
T4 sequence (P05364 21-381): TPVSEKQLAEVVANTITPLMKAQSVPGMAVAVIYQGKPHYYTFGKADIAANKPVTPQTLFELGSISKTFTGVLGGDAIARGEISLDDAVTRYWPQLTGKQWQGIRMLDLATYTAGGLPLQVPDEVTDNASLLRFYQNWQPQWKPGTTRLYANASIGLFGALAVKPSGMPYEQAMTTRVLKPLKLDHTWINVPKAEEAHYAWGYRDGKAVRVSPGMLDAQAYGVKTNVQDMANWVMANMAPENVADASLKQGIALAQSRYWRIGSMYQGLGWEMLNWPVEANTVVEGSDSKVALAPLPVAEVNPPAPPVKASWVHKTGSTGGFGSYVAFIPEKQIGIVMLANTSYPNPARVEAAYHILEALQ
Experimental: as §4, §5, §6

[11] = biological target: T5, OXA-1 β-lactamase (Class D oxacillinase) (Escherichia coli, UniProt P13661); experiment: β-Lactamase inhibition, OXA-1; assay type: biochemical; details: nitrocefin 100 μM, 486 nm; 15 min preincubation at 37° C., PBS pH 7.4
T5 construct: made in house; host or cells: E. coli BL21(DE3)
T5 sequence (P13661 26-276): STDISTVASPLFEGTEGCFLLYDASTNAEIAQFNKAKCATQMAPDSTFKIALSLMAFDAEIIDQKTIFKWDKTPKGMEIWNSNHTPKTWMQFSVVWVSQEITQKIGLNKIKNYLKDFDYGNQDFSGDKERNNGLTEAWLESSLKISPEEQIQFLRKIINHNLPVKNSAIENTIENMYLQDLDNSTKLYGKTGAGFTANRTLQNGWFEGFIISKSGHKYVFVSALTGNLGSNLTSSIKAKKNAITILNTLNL
Experimental: as §4, §5, §6

Row | Structure (SMILES) | MIC of example compound in presence of fixed β-lactam: Fixed Mero, K. P. 156319 KPC-3 [1] | MIC of example compound in presence of fixed β-lactam: Fixed CAZ, E. cl. 144200 p99 AmpC [2] | IC50 [3] | MIC of example compound in presence of fixed β-lactam: Fixed Mero, K. P. A-1797 KPC-2 VIM-4 [4] | IC50 [5] | MIC of example compound in presence of fixed β-lactam: Fixed Mero, P. aerug. Ps296 VIM-2 [6] | MIC of example compound in presence of fixed β-lactam: Fixed Pip, S. aureus MSSA-7 PC-1 [7] | IC50 [8] | MIC of example compound in presence of fixed β-lactam: Fixed CAZ, E. coli ESBL4 CTX-M-15 [9] | IC50 [10] | IC50 [11]
1 | NCC1CCN(CC(=O)N[C@H]2Cc3cccc(C(=O)O)c3OB2O)CC1 [Example 5, 3-[2-(4-Aminomethyl-piperidin-1-yl)-acetylamino]-2-hydroxy-3,4-dihydro-2H-benzo[e][1,2]oxaborinine-8-carboxylic acid] | C (the MIC in the presence of <4 μg/mL of a β-lactamase inhibitor) | C (the MIC in the presence of <4 μg/mL of a β-lactamase inhibitor) | 1 to 10 µM | C (the MIC in the presence of <4 μg/mL of a β-lactamase inhibitor) | 0.1 to 1 µM | B (the MIC in the presence of between 8 and 32 μg/mL of a β-lactamase inhibitor) | B (the MIC in the presence of between 8 and 32 μg/mL of a β-lactamase inhibitor) | < 0.1 µM | C (the MIC in the presence of <4 μg/mL of a β-lactamase inhibitor) | < 0.1 µM | < 0.1 µM
2 | N[C@@H]1CCN(CC(=O)N[C@H]2Cc3cccc(C(=O)O)c3OB2O)C1 [Example 6, 3-[2-(R-3-Amino-pyrrolidin-1-yl)-acetylamino]-2-hydroxy-3,4-dihydro-2H-benzo[e][1,2]oxaborinine-8-carboxylic acid] | C (the MIC in the presence of <4 μg/mL of a β-lactamase inhibitor) | C (the MIC in the presence of <4 μg/mL of a β-lactamase inhibitor) | < 0.1 µM | B (the MIC in the presence of between 8 and 32 μg/mL of a β-lactamase inhibitor) | 1 to 10 µM | B (the MIC in the presence of between 8 and 32 μg/mL of a β-lactamase inhibitor) | A (an MIC of the fixed β-lactam antibiotic in the presence of >32 μg/mL of a β-lactamase inhibitor) | 0.1 to 1 µM | C (the MIC in the presence of <4 μg/mL of a β-lactamase inhibitor) | < 0.1 µM | 0.1 to 1 µM
3 | N[C@H]1CCN(CC(=O)N[C@H]2Cc3cccc(C(=O)O)c3OB2O)C1 [Example 7, 3-[2-(S-3-Amino-pyrrolidin-1-yl)-acetylamino]-2-hydroxy-3,4-dihydro-2H-benzo[e][1,2]oxaborinine-8-carboxylic acid] | C (the MIC in the presence of <4 μg/mL of a β-lactamase inhibitor) | C (the MIC in the presence of <4 μg/mL of a β-lactamase inhibitor) | < 0.1 µM | A (an MIC of the fixed β-lactam antibiotic in the presence of >32 μg/mL of a β-lactamase inhibitor) | 1 to 10 µM | A (an MIC of the fixed β-lactam antibiotic in the presence of >32 μg/mL of a β-lactamase inhibitor) | C (the MIC in the presence of <4 μg/mL of a β-lactamase inhibitor) | 0.1 to 1 µM | C (the MIC in the presence of <4 μg/mL of a β-lactamase inhibitor) | < 0.1 µM | 0.1 to 1 µM
4 | O=C(CN1CCNCC1=O)N[C@H]1Cc2cccc(C(=O)O)c2OB1O [Example 8, 2-Hydroxy-3-[2-(2-oxo-piperazin-1-yl)-acetylamino]-3,4-dihydro-2H-benzo[e][1,2]oxaborinine-8-carboxylic acid] | C (the MIC in the presence of <4 μg/mL of a β-lactamase inhibitor) | C (the MIC in the presence of <4 μg/mL of a β-lactamase inhibitor) | 10 to 100 µM | A (an MIC of the fixed β-lactam antibiotic in the presence of >32 μg/mL of a β-lactamase inhibitor) | 1 to 10 µM | A (an MIC of the fixed β-lactam antibiotic in the presence of >32 μg/mL of a β-lactamase inhibitor) | C (the MIC in the presence of <4 μg/mL of a β-lactamase inhibitor) | 0.1 to 1 µM | C (the MIC in the presence of <4 μg/mL of a β-lactamase inhibitor) | < 0.1 µM | < 0.1 µM
